In patent US10040781B2, “Tank-binding kinase inhibitor compounds” (Gilead Sciences, Inc., priority 2014, dated 2018):
Like-named read-outs stand apart in the source and are kept apart here.

Columns and labels:
IKKε = IKKε (Homo sapiens (Human), UniProt Q14164); assay: IKKε TR-FRET enzymatic assay; assay type: biochemical; conditions: read-out: IKKe IC50
hJAK2 = hJAK2 (Homo sapiens (Human), UniProt O60674); assay: hJAK2 LANCE TR-FRET enzymatic assay; assay type: biochemical; conditions: read-out: JAK2 IC50
TBK1 = TBK1 (Homo sapiens (Human), UniProt Q9UHD2); assay: TBK1 TR-FRET enzymatic assay;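 also: phosphorylation of a biotinylated Ser/Thr peptide by purified full-length recombinant TBK1, read by TR-FRET after 240 min at 25 °C, IC50 is the geometric mean of at least four runs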
[1] = TR-FRET, 2×Km ATP, geometric mean of minimum four determinations

IKKε, sequence (Q14164 whole entry): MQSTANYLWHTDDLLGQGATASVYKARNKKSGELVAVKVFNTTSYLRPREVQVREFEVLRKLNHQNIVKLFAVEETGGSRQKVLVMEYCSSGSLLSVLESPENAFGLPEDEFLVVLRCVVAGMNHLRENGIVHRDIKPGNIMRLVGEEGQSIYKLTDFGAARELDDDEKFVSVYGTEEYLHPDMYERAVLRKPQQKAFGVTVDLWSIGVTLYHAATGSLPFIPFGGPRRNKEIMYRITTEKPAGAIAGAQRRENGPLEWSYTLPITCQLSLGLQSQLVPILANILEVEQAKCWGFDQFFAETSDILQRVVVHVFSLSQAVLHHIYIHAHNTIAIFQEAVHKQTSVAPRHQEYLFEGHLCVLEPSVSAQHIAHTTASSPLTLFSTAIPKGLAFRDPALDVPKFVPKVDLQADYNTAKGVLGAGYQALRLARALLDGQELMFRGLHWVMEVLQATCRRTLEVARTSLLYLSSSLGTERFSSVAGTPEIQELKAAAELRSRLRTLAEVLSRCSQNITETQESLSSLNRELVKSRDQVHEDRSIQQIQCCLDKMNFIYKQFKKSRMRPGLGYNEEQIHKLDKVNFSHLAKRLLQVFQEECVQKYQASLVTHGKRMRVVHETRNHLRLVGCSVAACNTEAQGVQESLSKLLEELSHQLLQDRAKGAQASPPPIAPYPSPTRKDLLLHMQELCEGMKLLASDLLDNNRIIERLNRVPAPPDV
TBK1, sequence (Q9UHD2 whole entry): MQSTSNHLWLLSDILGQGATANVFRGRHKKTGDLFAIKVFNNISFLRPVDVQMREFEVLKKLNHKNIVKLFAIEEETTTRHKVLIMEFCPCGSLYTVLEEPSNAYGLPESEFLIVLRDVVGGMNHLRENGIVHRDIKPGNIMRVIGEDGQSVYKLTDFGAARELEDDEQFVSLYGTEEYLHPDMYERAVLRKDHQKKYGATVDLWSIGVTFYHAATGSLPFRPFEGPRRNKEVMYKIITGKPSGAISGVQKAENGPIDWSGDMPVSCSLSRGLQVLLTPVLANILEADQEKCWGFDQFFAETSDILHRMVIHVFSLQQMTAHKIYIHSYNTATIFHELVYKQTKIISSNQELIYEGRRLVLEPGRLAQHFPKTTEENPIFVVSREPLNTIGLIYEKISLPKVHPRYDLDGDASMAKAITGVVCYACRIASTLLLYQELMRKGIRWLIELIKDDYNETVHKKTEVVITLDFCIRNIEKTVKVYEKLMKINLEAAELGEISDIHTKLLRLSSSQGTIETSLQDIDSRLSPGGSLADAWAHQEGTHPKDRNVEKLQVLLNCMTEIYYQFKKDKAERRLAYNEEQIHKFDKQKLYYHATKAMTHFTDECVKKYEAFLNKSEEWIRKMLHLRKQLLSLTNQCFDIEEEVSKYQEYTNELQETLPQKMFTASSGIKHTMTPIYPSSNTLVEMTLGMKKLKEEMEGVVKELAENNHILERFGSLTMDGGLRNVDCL
hJAK2, sequence (O60674 whole entry): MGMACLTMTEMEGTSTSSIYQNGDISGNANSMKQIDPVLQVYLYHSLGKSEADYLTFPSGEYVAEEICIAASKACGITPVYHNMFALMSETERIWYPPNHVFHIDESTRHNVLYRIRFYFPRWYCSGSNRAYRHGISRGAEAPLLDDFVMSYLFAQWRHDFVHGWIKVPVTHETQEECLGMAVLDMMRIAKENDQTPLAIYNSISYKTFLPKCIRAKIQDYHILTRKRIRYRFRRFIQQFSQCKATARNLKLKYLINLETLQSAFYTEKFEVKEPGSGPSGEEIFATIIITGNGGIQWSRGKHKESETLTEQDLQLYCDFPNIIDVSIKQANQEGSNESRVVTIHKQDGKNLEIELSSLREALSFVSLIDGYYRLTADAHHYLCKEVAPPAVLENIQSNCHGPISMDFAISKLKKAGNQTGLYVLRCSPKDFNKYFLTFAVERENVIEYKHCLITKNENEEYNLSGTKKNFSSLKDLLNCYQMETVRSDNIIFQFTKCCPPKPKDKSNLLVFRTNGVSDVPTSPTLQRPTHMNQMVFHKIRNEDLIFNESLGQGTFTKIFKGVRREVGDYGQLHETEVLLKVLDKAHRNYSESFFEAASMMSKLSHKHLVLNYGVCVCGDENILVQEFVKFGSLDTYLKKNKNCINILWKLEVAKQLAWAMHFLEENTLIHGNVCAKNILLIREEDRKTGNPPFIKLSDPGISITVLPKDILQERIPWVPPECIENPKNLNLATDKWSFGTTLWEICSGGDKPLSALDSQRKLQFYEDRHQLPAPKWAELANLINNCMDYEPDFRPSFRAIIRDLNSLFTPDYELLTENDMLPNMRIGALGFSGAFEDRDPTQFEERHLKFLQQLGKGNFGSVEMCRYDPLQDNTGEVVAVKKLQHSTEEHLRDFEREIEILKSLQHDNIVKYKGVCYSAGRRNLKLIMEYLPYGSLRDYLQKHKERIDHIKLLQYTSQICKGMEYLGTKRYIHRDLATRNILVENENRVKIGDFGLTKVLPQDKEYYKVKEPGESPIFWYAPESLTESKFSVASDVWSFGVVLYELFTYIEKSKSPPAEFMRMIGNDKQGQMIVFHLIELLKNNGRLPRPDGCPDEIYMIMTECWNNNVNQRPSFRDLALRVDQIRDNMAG

| IC50 (IKKε) | IC50 (hJAK2) | IC50 (TBK1) | IC50 (IKKε; [1]) | SMILES |
| --- | --- | --- | --- | --- |
| 23 nM | 242 nM | 3 nM |  | N#Cc1cc(-c2ncnc(Nc3ccc(N4CCN(C5COC5)CC4)cc3)n2)ccc1OC1CCNCC1(F)F (racemic) [Example 148, 2-((3,3-difluoropiperidin-4-yl)oxy)-5-(4-((4-(4-(oxetan-3-yl)piperazin-1-yl)phenyl)amino)-1,3,5-triazin-2-yl)benzonitrile] |
| 6 nM | 154 nM | 24 nM |  | N#Cc1cc(-c2ncnc(Nc3cnn(C4CCNCC4)c3)n2)ccc1O[C@H]1CCCC[C@H]1F (racemic) [Example 295, rac-2-(((1S,2R)-2-fluorocyclohexyl)oxy)-5-(4-((1-(piperidin-4-yl)-1H-pyrazol-4-yl)amino)-1,3,5-triazin-2-yl)benzonitrile] |
|  | 65 nM | 4 nM | 2 nM | C[C@H]1CN(C(=O)CO)CC(F)(F)[C@H]1Oc1ccc(-c2ncnc(Nc3ccc(N4CCN(C5COC5)CC4)cc3)n2)cc1C#N (relative stereo) [Example 430, Cis 2-((3,3-difluoro-1-(2-hydroxyacetyl)-5-methylpiperidin-4-yl)oxy)-5-(4-((4-(4-(oxetan-3-yl)piperazin-1-yl)phenyl)amino)-1,3,5-triazin-2-yl)benzonitrile] |
|  | 140 nM | 5 nM | 3 nM | C[C@@H]1CN(C(=O)CO)CC(F)(F)[C@H]1Oc1ccc(-c2ncnc(Nc3ccc(N4CCN(C5COC5)CC4)cc3)n2)cc1C#N (relative stereo) [Example 432, trans-2-((3,3-difluoro-1-(2-hydroxyacetyl)-5-methylpiperidin-4-yl)oxy)-5-(4-((4-(4-(oxetan-3-yl)piperazin-1-yl)phenyl)amino)-1,3,5-triazin-2-yl)benzonitrile] |
| 1 nM | 198 nM |  |  | C[C@H](O)C(=O)N1CC[C@H](Oc2ccc(-c3ncnc(Nc4ccc(N5CCN(C6COC6)CC5)cc4)n3)cc2C#N)C(F)(F)C1 (single isomer, unassigned) [Example 155] |
| ≥ 1000 nM | ≥ 1000 nM |  |  | N#Cc1cc(-c2ncnc(Nc3ccc(N4CCN(C5COC5)CC4)cc3)n2)ccc1O[C@H]1CCN(C(=O)[C@@H]2CCCN2)C[C@H]1F [Example 133, 2-(((3R,4S)-3-fluoro-1-((S)-pyrrolidine-2-carbonyl)piperidin-4-yl)oxy)-5-(4-((4-(4-(oxetan-3-yl)piperazin-1-yl)phenyl)amino)-1,3,5-triazin-2-yl)benzonitrile] |
|  | 156 nM |  | 99 nM | N#Cc1cc(-c2ncnc(Nc3ccc(N4CCN(C5COC5)CC4)cc3)n2)ccc1O[C@H]1CCN(Cc2nc(=O)[nH][nH]2)C[C@H]1F [Example 436, 2-(((3R,4S)-3-fluoro-1-((5-oxo-2,5-dihydro-1H-1,2,4-triazol-3-yl)methyl)piperidin-4-yl)oxy)-5-(4-((4-(4-(oxetan-3-yl)piperazin-1-yl)phenyl)amino)-1,3,5-triazin-2-yl)benzonitrile] |
|  |  | 2 nM | 1 nM | COc1cc(Nc2ncnc(-c3ccc(O[C@H]4CCN(C(=O)[C@@H](O)CO)CC4(F)F)c(C#N)c3)n2)ccc1N1CCN(C2COC2)CC1 [Example 577, 2-(((S)-1-((S)-2,3-dihydroxypropanoyl)-3,3-difluoropiperidin-4-yl)oxy)-5-(4-((3-methoxy-4-(4-(oxetan-3-yl)piperazin-1-yl)phenyl)amino)-1,3,5-triazin-2-yl)benzonitrile] |
| 20 nM |  | 12 nM |  | N#Cc1cc(-c2ncnc(Nc3ccc(N4CCN(C5COC5)CC4)cc3)n2)ccc1OCC1(C(N)=O)CC1 [Example 605, 1-((2-cyano-4-(4-((4-(4-(oxetan-3-yl)piperazin-1-yl)phenyl)amino)-1,3,5-triazin-2-yl)phenoxy)methyl)-cyclopropanecarbox-amide] |
